From DBAASP
≈ marks a conversion by molar mass, not a printed value.

Assays:
Assay in all cases: ≥ marks a high value that may be exact or a test limit, other limits are often not marked, values filed in µg/mL are converted to µM
[1] = system: Staphylococcus aureus ATCC 29213
[2] = system: Escherichia coli ATCC 25922
[3] = system: Pseudomonas aeruginosa ATCC 27853
Escherichia coli = system: Escherichia coli
Staphylococcus aureus = system: Staphylococcus aureus
[4] = system: Staphylococcus aureus ATCC 25923
Pseudomonas aeruginosa = system: Pseudomonas aeruginosa

CC(C)C[C@H](NC(=O)[C@H](C)NC(=O)[C@H](Cc1ccc(O)cc1)NC(=O)[C@H](CC(C)C)NC(=O)[C@H](CCCN=C(N)N)NC(=O)[C@H](C)NC(=O)[C@H](CC(C)C)NC(=O)[C@H](CO)NC(=O)[C@H](C)NC(=O)[C@H](CC(C)C)NC(=O)[C@@H](N)CC(=O)O)C(=O)N[C@@H](C)C(=O)N[C@@H](CCCN=C(N)N)C(N)=O [DLASLARLYALAR]
MIC [1]: > 489 µM
MIC [2]: > 489 µM

CC[C@H](C)[C@H](NC(=O)[C@@H](NC(=O)[C@@H](N)Cc1ccccc1)[C@@H](C)CC)C(=O)N[C@@H](Cc1c[nH]c2ccccc12)C(=O)N1CCC[C@H]1C(=O)N[C@@H](CC(C)C)C(=O)N[C@@H](CCCN=C(N)N)C(=O)N[C@@H](Cc1ccc(O)cc1)C(=O)N[C@@H](CCCN=C(N)N)C(=O)N[C@@H](CCCCN)C(N)=O [FIIWPLRYRK]
MIC [1]: 359 µM (≈ 500 µg/mL)
MIC [2]: 180 µM (≈ 250 µg/mL)

CC[C@H](C)[C@H](NC(=O)[C@H](CCCN=C(N)N)NC(=O)[C@H](CCC(N)=O)NC(=O)[C@@H](NC(=O)[C@H](C)NC(=O)[C@H](CCCN=C(N)N)NC(=O)[C@H](CCCCN)NC(=O)[C@@H](N)Cc1ccccc1)C(C)C)C(=O)N[C@@H](CCCCN)C(=O)N[C@@H](CC(=O)O)C(=O)N[C@@H](Cc1ccccc1)C(=O)N[C@@H](CC(C)C)C(=O)N[C@@H](CCCN=C(N)N)C(=O)O [FKRAVQRIKDFLR]
MIC [1]: > 40 µM
MIC [2]: 5 µM (≈ 8.39 µg/mL)

CC[C@H](C)[C@H](NC(=O)[C@H](CCSC)NC(=O)[C@H](C)NC(=O)[C@@H]1CCCN1C(=O)[C@@H](NC(=O)[C@@H](NC(=O)[C@H](CCCCN)NC(=O)[C@@H](NC(=O)[C@H](CC(C)C)NC(=O)CN)[C@@H](C)CC)[C@@H](C)CC)C(C)C)C(=O)N[C@H]1CSSC[C@@H](C(=O)O)NC(=O)[C@H](CCCCN)NC(=O)[C@H](CCCCN)NC(=O)[C@H]([C@@H](C)O)NC(=O)[C@H](C(C)C)NC(=O)[C@H](C)NC1=O [GLIKIVPAMICAVTKKC]
MIC [1]: > 143 µM
MIC [3]: > 143 µM
MIC [2]: > 143 µM

C[C@H](NC(=O)[C@H](C)NC(=O)[C@H](CCCCN)NC(=O)[C@H](C)NC(=O)[C@H](Cc1ccccc1)NC(=O)[C@H](Cc1c[nH]c2ccccc12)NC(=O)[C@H](CCCCN)NC(=O)[C@H](Cc1ccccc1)NC(=O)[C@H](CCCCN)NC(=O)[C@H](CCCCN)NC(=O)[C@H](C)NC(=O)[C@H](Cc1ccccc1)NC(=O)[C@@H](N)CCCCN)C(=O)N[C@@H](Cc1ccccc1)C(=O)N[C@@H](CCCCN)C(=O)N[C@@H](Cc1ccccc1)C(=O)N[C@@H](Cc1ccccc1)C(=O)N[C@@H](CCCCN)C(=O)N[C@@H](CCCCN)C(N)=O [KFAKKFKWFAKAAFKFFKK]
MIC (Escherichia coli): 7.23 µM (≈ 17.3 µg/mL)
MIC (Staphylococcus aureus): 4.17 µM (≈ 10 µg/mL)

CC(C)C[C@H](NC(=O)[C@H](CCCCN)NC(=O)[C@H](C)NC(=O)[C@H](CC(C)C)NC(=O)[C@H](CCCCN)NC(=O)[C@H](CCCCN)NC(=O)[C@H](C)NC(=O)[C@H](CC(C)C)NC(=O)[C@H](CCCCN)NC(=O)[C@H](C)NC(=O)[C@H](CC(C)C)NC(=O)[C@H](CCCCN)NC(=O)[C@H](CCCCN)NC(=O)[C@H](C)NC(=O)[C@H](CC(C)C)NC(=O)[C@H](CCCCN)NC(=O)[C@H](C)NC(=O)[C@H](CC(C)C)NC(=O)[C@@H](N)CCCCN)C(=O)N[C@@H](C)C(=O)N[C@@H](CCCCN)C(N)=O [KLAKLAKKLAKLAKKLAKLAK]
MIC [4]: 4 µM (≈ 9.1 µg/mL)
MIC [3]: 4 µM (≈ 9.1 µg/mL)
MIC [2]: 4 µM (≈ 9.1 µg/mL)

CC(C)C[C@H](NC(=O)[C@H](CCCCN)NC(=O)[C@H](C)NC(=O)[C@H](CC(C)C)NC(=O)[C@@H](N)CCCCN)C(=O)N[C@@H](C)C(=O)N[C@@H](CCCCN)C(N)=O [KLAKLAK]
MIC [4]: > 95 µM
MIC [3]: > 95 µM
MIC [2]: > 95 µM

CC[C@H](C)[C@H](NC(=O)[C@H](CCCN=C(N)N)NC(=O)[C@@H](NC(=O)[C@H](CCCN=C(N)N)NC(=O)[C@H](CCC(N)=O)NC(=O)[C@H](Cc1cnc[nH]1)NC(=O)[C@@H](NC(=O)[C@H](CCCN=C(N)N)NC(=O)[C@H](CCCN=C(N)N)NC(=O)[C@H](CCCCN)NC(=O)[C@H](CCCN=C(N)N)NC(=O)[C@H](CCCCN)NC(=O)[C@H](CO)NC(=O)[C@H](CCCN=C(N)N)NC(=O)[C@@H](N)CCCCN)[C@@H](C)CC)C(C)C)C(=O)N[C@@H](CO)C(=O)O [KRSKRKRRIHQRVRIS]
MIC (Escherichia coli): > 23.8 µM
MIC [2]: > 23.8 µM

CC(C)[C@H](NC(=O)[C@H](CC(=O)O)NC(=O)[C@H](CO)NC(=O)[C@@H](N)CCCCN)C(=O)N[C@@H](CCCN=C(N)N)C(=O)N[C@@H](CCCN=C(N)N)C(=O)N[C@@H](Cc1c[nH]c2ccccc12)C(=O)N[C@@H](CCCN=C(N)N)C(=O)N[C@@H](CO)C(=O)N[C@@H](CCCN=C(N)N)C(=O)N[C@@H](Cc1ccc(O)cc1)C(N)=O [KSDVRRWRSRY]
MIC [4]: > 100 µM
MIC [3]: > 100 µM
MIC [2]: > 100 µM

CC[C@H](C)[C@H](NC(=O)[C@H](Cc1ccccc1)NC(=O)[C@H](CO)NC(=O)[C@H](CCCCN)NC(=O)[C@H](Cc1c[nH]c2ccccc12)NC(=O)[C@@H](N)CCCCN)C(=O)N[C@@H](CCCCN)C(=O)N[C@@H](CCCCN)C(=O)N[C@@H](CC(C)C)C(=O)N[C@H](C(=O)N[C@@H](CO)C(=O)N[C@@H](CCCCN)C(=O)N[C@@H](Cc1ccccc1)C(=O)N[C@@H](CC(C)C)C(=O)N[C@@H](Cc1cnc[nH]1)C(=O)N[C@@H](CO)C(=O)N[C@@H](CCCCN)C(=O)N[C@@H](CCCCN)C(=O)N[C@@H](CCCCN)C(=O)N[C@@H](Cc1ccccc1)C(N)=O)[C@@H](C)O [KWKSFIKKLTSKFLHSKKKF]
MIC (Pseudomonas aeruginosa): 4.98 µM (≈ 12.5 µg/mL)

CC(C)C[C@H](NC(=O)[C@H](C)NC(=O)[C@H](CCCCN)NC(=O)[C@H](CCCCN)NC(=O)[C@@H](N)CC(C)C)C(=O)N[C@@H](CCCCN)C(=O)N[C@@H](CC(C)C)C(=O)N[C@@H](CC(C)C)C(=O)N[C@@H](CCCCN)C(=O)N[C@@H](CCCCN)C(=O)N[C@@H](CC(C)C)C(=O)N[C@@H](CC(C)C)C(=O)N[C@@H](CCCCN)C(=O)N[C@@H](CC(C)C)C(=O)N[C@@H](C)C(=O)NCC(=O)O [LKKALKLLKKLLKLAG]
MIC [1]: 5 µM (≈ 8.89 µg/mL)
MIC [2]: 5 µM (≈ 8.89 µg/mL)

CC(C)C[C@H](NC(=O)[C@H](CCCCN)NC(=O)[C@H](CC(C)C)NC(=O)[C@H](CC(C)C)NC(=O)[C@H](CCCCN)NC(=O)[C@H](CCCCN)NC(=O)[C@H](CC(=O)O)NC(=O)[C@H](CC(C)C)NC(=O)[C@H](CCCCN)NC(=O)[C@H](CC(C)C)NC(=O)[C@H](CC(C)C)NC(=O)[C@H](CCCCN)NC(=O)[C@H](CCCCN)NC(=O)[C@@H](N)CC(C)C)C(=O)N[C@@H](C)C(=O)NCC(=O)O [LKKLLKLDKKLLKLAG]
MIC [1]: > 40 µM
MIC [2]: 10 µM (≈ 18.2 µg/mL)

CC(C)C[C@H](NC(=O)[C@H](C)NC(=O)[C@H](CCCCN)NC(=O)[C@H](CCCCN)NC(=O)[C@H](CC(C)C)NC(=O)[C@H](CC(C)C)NC(=O)[C@H](CCCCN)NC(=O)[C@H](CC(C)C)NC(=O)[C@H](CC(C)C)NC(=O)[C@H](CCCCN)NC(=O)[C@H](CCCCN)NC(=O)[C@@H](N)CC(C)C)C(=O)N[C@@H](CCCCN)C(=O)N[C@@H](CC(C)C)C(=O)N[C@@H](C)C(=O)NCC(=O)O [LKKLLKLLKKALKLAG]
MIC [1]: 5 µM (≈ 8.89 µg/mL)
MIC [2]: 5 µM (≈ 8.89 µg/mL)

CC(=O)N[C@@H](CC(C)C)C(=O)N[C@@H](CCCCN)C(=O)N[C@@H](CCCCN)C(=O)N[C@@H](CC(C)C)C(=O)N[C@@H](CC(C)C)C(=O)N[C@@H](CCCCN)C(=O)N[C@@H](CC(C)C)C(=O)N[C@@H](CC(C)C)C(=O)N[C@@H](CCCCN)C(=O)N[C@@H](CCCCN)C(=O)N1CCC[C@H]1C(=O)N[C@@H](CC(C)C)C(=O)N[C@@H](CCCCN)C(=O)N[C@@H](CC(C)C)C(N)=O [LKKLLKLLKKPLKL]
MIC [1]: 40 µM (≈ 68.7 µg/mL)
MIC [2]: 28.3 µM (≈ 48.6 µg/mL)

CC(=O)N[C@@H](CC(C)C)C(=O)N[C@@H](CCCCN)C(=O)N[C@@H](CCCCN)C(=O)N[C@@H](CC(C)C)C(=O)N[C@@H](CC(C)C)C(=O)N[C@@H](CCCCN)C(=O)N[C@@H](CC(C)C)C(=O)N1CCC[C@H]1C(=O)N[C@@H](CCCCN)C(=O)N[C@@H](CCCCN)C(=O)N[C@@H](CC(C)C)C(=O)N[C@@H](CC(C)C)C(=O)N[C@@H](CCCCN)C(=O)N[C@@H](CC(C)C)C(N)=O [LKKLLKLPKKLLKL]
MIC [1]: > 80 µM
MIC [2]: 56.6 µM (≈ 97.1 µg/mL)

CC(C)C[C@H](NC(=O)[C@H](CC(=O)O)NC(=O)[C@@H](NC(=O)[C@H](CCCCN)NC(=O)[C@H](CC(C)C)NC(=O)[C@@H](N)CCC(N)=O)C(C)C)C(=O)N[C@@H](Cc1c[nH]c2ccccc12)C(=O)NCC(=O)N[C@H](C(=O)N[C@@H](CCCN=C(N)N)C(N)=O)[C@@H](C)O [QLKVDLWGTR]
MIC [4]: > 100 µM
MIC [3]: > 100 µM
MIC [2]: > 100 µM

NC(=O)[C@H](Cc1c[nH]c2ccccc12)NC(=O)[C@H](CCCN=C(N)N)NC(=O)[C@H](Cc1ccc(O)cc1)NC(=O)[C@H](CCCN=C(N)N)NC(=O)[C@H](Cc1c[nH]c2ccccc12)NC(=O)[C@@H](N)CCCN=C(N)N [RWRYRW]
MIC [4]: 9.78 µM (≈ 9.99 µg/mL)
MIC [3]: 78.3 µM (≈ 79.9 µg/mL)
MIC [2]: 48.9 µM (≈ 50 µg/mL)

CC[C@H](C)[C@H](NC(=O)[C@H](CCCN=C(N)N)NC(=O)[C@H](CCC(=O)O)NC(=O)[C@H](CCCCN)NC(=O)[C@H](CCC(=O)O)NC(=O)[C@H](CCCCN)NC(=O)[C@H](CO)NC(=O)[C@H](CC(C)C)NC(=O)[C@@H](N)[C@@H](C)O)C(=O)N[C@H](C(=O)N[C@@H](CCC(N)=O)C(=O)N[C@@H](CCCN=C(N)N)C(=O)N[C@H](C(=O)N[C@@H](CCCN=C(N)N)C(=O)N[C@H](C(=O)N[C@@H](CO)C(=O)O)[C@@H](C)O)C(C)C)C(C)C [TLSKEKERIVQRVRTS]
MIC (Escherichia coli): > 25.9 µM
MIC [2]: > 25.9 µM

CSCC[C@H](NC(=O)[C@H](CCCN=C(N)N)NC(=O)[C@@H](N)Cc1ccc(O)cc1)C(=O)N[C@@H](Cc1c[nH]c2ccccc12)C(=O)N[C@@H](CCCN=C(N)N)C(=O)N[C@@H](Cc1c[nH]c2ccccc12)C(=O)N[C@@H](C)C(=O)N[C@@H](Cc1c[nH]c2ccccc12)C(=O)N[C@@H](CCCN=C(N)N)C(=O)N[C@@H](Cc1c[nH]c2ccccc12)C(=O)N[C@@H](CCCN=C(N)N)C(N)=O [YRMWRWAWRWR]
MIC [4]: 1.43 µM (≈ 2.5 µg/mL)
MIC [3]: 11.4 µM (≈ 20 µg/mL)
MIC [2]: 5.7 µM (≈ 9.99 µg/mL)
